From patent publication US6620828B2, “Thiazole compounds and pharmaceutical compositions for inhibiting protein kinases and methods for their use” (Agouron Pharmaceuticals, Inc., priority 1999, dated 2003) come the findings set out here.

What all share (format): biochemical
One assay has as its target CDK2/Cyclin A complex (Homo sapiens, UniProt P24941). The assay is described as follows: CDK2/Cyclin A assay. As to conditions: 1.0 μM; combinatorial library compounds. Summed up:
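Radiometric assay: 150 nM CDK2/cyclin A (insect-cell CDK2, truncated cyclin A) phosphorylates His-tagged Rb fragment (residues 386-928) with 25 μM ATP plus [32P]ATP, pH 7.4 HEPES, 2% DMSO, 30 °C for 20 min. Filter-captured product counted by phosphorimager; apparent Ki from competitive or tight-binding inhibition fits.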

The target of a further assay is T1, CDK4/Cyclin D3 complex (Homo sapiens, UniProt P11802).
T1 construct: made in house; host or cells: insect cells co-infected with baculovirus vectors
The assay is described as follows: CDK4/Cyclin D assay. As to conditions: 1.0 μM; combinatorial library compounds. In a few lines:
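Insect-cell-expressed CDK4/cyclin D3 (50 nM) phosphorylating His-tagged Rb fragment (residues 386-928) with 25 μM [^32P]ATP in HEPES pH 7.4, MgCl2, 2% DMSO; 20 min at 30 °C, EDTA stop. Filter-captured 32P by phosphorimager; apparent Ki from competitive or tight-binding inhibition fits.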

The target of assay [1] is T2, phosphorylated VEGF-R2Δ50 (FLVK-P) (Homo sapiens, UniProt P35968, DEL940-989/E990V).
T2 construct: VEGF-R2Δ50 contains residues 806-939 and 990-1171; made in house; host or cells: baculovirus/insect cells
The assay is described as follows: VEGF-R2 coupled spectrophotometric (FLVK-P) assay. As to conditions: read-out: VEGF % inhibition at 20 μM, 20 μM; combinatorial library compounds. In a few lines: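 Baculovirus-expressed human VEGF-R2Δ50 (residues 806-939/990-1171, E990V) was autophosphorylated with 3 mM ATP, 40 mM MgCl2 for 2 h at 4° C. ADP formation was coupled via PK/LDH to NADH oxidation, read at 340 nm, with 5.1 mM poly(E4Y1), 1 mM ATP, 25 mM MgCl2, Hepes pH 7.5. Ki came from activity across compound concentrations.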

Another assay concerns the target T3, FL-CHK1 (Homo sapiens, UniProt O14757).
T3 construct: C-terminally His-tagged full-length human CHK1 (FL-CHK1); 6xHis (C); made in house; host or cells: baculovirus/insect cells
T3 sequence (O14757 1-476): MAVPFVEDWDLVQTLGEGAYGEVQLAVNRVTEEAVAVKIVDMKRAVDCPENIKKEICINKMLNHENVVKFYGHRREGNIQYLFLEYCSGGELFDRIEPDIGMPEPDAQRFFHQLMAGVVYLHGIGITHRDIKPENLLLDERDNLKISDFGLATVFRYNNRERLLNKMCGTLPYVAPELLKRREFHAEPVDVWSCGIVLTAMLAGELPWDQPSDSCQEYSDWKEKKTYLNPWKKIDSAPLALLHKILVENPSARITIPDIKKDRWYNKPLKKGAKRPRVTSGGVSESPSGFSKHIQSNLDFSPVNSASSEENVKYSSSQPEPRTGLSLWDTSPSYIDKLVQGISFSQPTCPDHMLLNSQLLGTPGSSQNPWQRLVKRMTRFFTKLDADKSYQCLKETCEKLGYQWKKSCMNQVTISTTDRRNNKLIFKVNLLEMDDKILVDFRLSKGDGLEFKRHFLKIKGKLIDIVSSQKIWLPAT
The assay can be described thus: CHK1 assay. Particulars: 20 μM; combinatorial library compounds. In a few lines: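 Full-length human CHK1 with C-terminal 6×His tag, made in baculovirus/insect cells, 10 nM, phosphorylating 0.125 mM Syntide-2 with 0.15 mM ATP in 50 mM Tris pH 7.5, 25 mM MgCl2, 400 mM NaCl. PK/LDH-coupled NADH oxidation read at 340 nm. Ki from initial rates over varied compound concentrations.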

As usually defined, the inhibition is the drop in the measured response relative to a control, in per cent.

The structures appear in SMILES notation.

T1 sequence (P11802 whole entry): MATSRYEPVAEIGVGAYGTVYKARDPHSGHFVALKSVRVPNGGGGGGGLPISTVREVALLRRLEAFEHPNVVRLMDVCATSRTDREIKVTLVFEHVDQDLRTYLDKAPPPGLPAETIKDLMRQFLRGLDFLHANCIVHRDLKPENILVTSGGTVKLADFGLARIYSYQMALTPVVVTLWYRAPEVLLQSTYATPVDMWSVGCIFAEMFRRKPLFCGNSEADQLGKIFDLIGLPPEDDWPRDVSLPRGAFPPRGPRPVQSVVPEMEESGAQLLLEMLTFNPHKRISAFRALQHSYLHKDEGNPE
T1 sequence (P30281 whole entry partner): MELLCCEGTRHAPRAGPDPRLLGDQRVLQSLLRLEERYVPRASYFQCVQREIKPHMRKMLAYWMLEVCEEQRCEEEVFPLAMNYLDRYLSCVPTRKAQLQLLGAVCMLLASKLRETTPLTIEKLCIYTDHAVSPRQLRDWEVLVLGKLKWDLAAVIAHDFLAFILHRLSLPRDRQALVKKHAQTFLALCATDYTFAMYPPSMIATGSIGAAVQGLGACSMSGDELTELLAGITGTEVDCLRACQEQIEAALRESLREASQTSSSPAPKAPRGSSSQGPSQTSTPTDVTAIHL
T2 sequence (P35968 with tags, fused parts or gaps DEL940-989/E990V limits assumed): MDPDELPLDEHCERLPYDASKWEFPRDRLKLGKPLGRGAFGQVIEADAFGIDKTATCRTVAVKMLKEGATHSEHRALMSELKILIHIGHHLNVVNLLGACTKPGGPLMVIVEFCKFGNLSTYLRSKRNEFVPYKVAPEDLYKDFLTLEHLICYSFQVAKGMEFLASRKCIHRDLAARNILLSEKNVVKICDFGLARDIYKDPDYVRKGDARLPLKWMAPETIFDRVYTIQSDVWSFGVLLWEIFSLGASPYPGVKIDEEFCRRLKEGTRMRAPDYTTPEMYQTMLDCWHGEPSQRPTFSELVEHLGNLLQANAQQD

Consider `CC(C)c1ccc(Nc2nc(N)c(-c3nc(-c4cc(Br)c(Cl)s4)cs3)s2)cc1`, for which the inhibition at 1 µM amounted to 26% on CDK2/Cyclin A complex and 84.7% on CDK4/Cyclin D3 complex. The inhibition at 20 µM in assay [1] was 25%; at FL-CHK1, 9.2%.
Taken in the same sequence, the figures for `CC(C)c1ccc(Nc2nc(N)c(-c3nc(-c4ccc(Cl)c([N+](=O)[O-])c4)cs3)s2)cc1` were 14.2%, 71.5%, 7% and 23.5%.
On the same counts, the results for `CC(C)c1ccc(Nc2nc(N)c(-c3nc(-c4ccc(-c5ccc(Cl)cc5Cl)o4)cs3)s2)cc1` are 15.1%, 49.7%, 3% and -7.9%.
With `COc1ccccc1-c1csc(-c2sc(Nc3ccc(C(C)C)cc3)nc2N)n1`, the inhibition at 1 µM on CDK2/Cyclin A complex is 6.3%; at CDK4/Cyclin D3 complex, 53.3%. Moreover, the figures for the inhibition at 20 µM (in assay [1]; on FL-CHK1) were -13% and 15.6%, respectively.
Taken in the same sequence, the figures for `Cc1ccc(-c2csc(-c3sc(Nc4ccc(C(C)C)cc4)nc3N)n2)cc1` were 14.2%, 55.9%, -2% and 0.8%.
Taken in the same sequence, the figures for `COc1ccc(-c2csc(-c3sc(Nc4ccc(C(C)C)cc4)nc3N)n2)c(OC)c1` were -22.6%, 38.2%, -10% and 1.8%.
Take `CC(C)c1ccc(Nc2nc(N)c(-c3nc(-c4ccc(Cl)cc4)cs3)s2)cc1`: the inhibition at 1 µM on CDK2/Cyclin A complex is 10.8%; at CDK4/Cyclin D3 complex, 53.1%. In addition, the inhibition at 20 µM in assay [1] is -2%; at FL-CHK1, -0.2%.
`COc1ccc(OC)c(-c2csc(-c3sc(Nc4ccc(C(C)C)cc4)nc3N)n2)c1`: the inhibition at 1 µM on CDK2/Cyclin A complex came to 12.2%; on CDK4/Cyclin D3 complex it was 79.4%. Further, the inhibition at 20 µM in assay [1] is 12%; at FL-CHK1, -5.2%.
On the same counts, the results for `CCOC(=O)c1cc(-c2csc(-c3sc(Nc4ccc(C(C)C)cc4)nc3N)n2)on1` are 15%, 28.7%, 9% and -5.7%.
Taken in the same sequence, the figures for `CC(C)c1ccc(Nc2nc(N)c(-c3nc(-c4ccccc4[N+](=O)[O-])cs3)s2)cc1` were 17.7%, 63%, 16% and 32.2%.
In the case of `CC(C)c1ccc(Nc2nc(N)c(-c3nc(-c4ccc([N+](=O)[O-])cc4)cs3)s2)cc1`, the inhibition at 1 µM at CDK2/Cyclin A complex was determined as 17.8%; on CDK4/Cyclin D3 complex, 35.6%. The inhibition at 20 µM in assay [1] was -4%; on FL-CHK1, 6%.
Take `Cc1cc(-c2csc(-c3sc(Nc4ccc(C(C)C)cc4)nc3N)n2)ccc1Cl`: the inhibition at 1 µM on CDK2/Cyclin A complex came to 11.7%; at CDK4/Cyclin D3 complex it was 9.1%. Besides, the inhibition at 20 µM in assay [1] is -7%; on FL-CHK1, 9%.
On the same counts, the results for `CC(C)c1ccc(Nc2nc(N)c(-c3nc(-c4ccc(-c5ccccc5)cc4)cs3)s2)cc1` are 9.6%, 0.7%, -9% and 3.2%.
Taken in the same sequence, the figures for `CC(C)c1ccc(Nc2nc(N)c(-c3nc(-c4ccc(C#N)cc4)cs3)s2)cc1` were 5.9%, 58.4%, 7% and 7.1%.
On the same counts, the results for `CC(C)c1ccc(Nc2nc(N)c(-c3nc(-c4ccc(Cl)cc4Cl)cs3)s2)cc1` are 25.7%, 81.4%, 23% and 21.4%.
As to `Cc1onc(-c2ccccc2)c1-c1csc(-c2sc(Nc3ccc(C(C)C)cc3)nc2N)n1`, the inhibition at 1 µM on CDK2/Cyclin A complex is 11.1%; at CDK4/Cyclin D3 complex it was 49.8%. For the same compound, the values for the inhibition at 20 µM (in assay [1]; on FL-CHK1) were 5% and -0.9%, respectively.
On the same counts, the results for `CCOC(=O)c1ccccc1-c1csc(-c2sc(Nc3ccc(C(C)C)cc3)nc2N)n1` are 29.2%, 81.6%, 26% and 26%.
With `Cc1c(C)c(C)c(-c2csc(-c3sc(Nc4ccc(C(C)C)cc4)nc3N)n2)c(C)c1C`, the inhibition at 1 µM stood at 39.9% on CDK2/Cyclin A complex and 84.7% on CDK4/Cyclin D3 complex. The inhibition at 20 µM in assay [1] came out at 59%; on FL-CHK1, 34.9%.
On the same counts, the results for `CC(C)c1ccc(Nc2nc(N)c(-c3nc(-c4cc(-c5ccccc5)no4)cs3)s2)cc1` are 2.4%, 50.4%, 13% and -4.7%.
On the same counts, the results for `Cc1c(F)cc(-c2csc(-c3sc(Nc4ccc(C(C)C)cc4)nc3N)n2)cc1Cl` are 28.2%, 88.6%, 18% and 22.8%.
Taken in the same sequence, the figures for `CC(C)c1ccc(Nc2nc(N)c(-c3nc(-c4cc(-c5ccc(Cl)c(Cl)c5)no4)cs3)s2)cc1` were 18.5%, -26.5%, -5% and -9%.
In the case of `CCCCCc1ccc(-c2csc(-c3sc(Nc4ccc(C(C)C)cc4)nc3N)n2)cc1`, the inhibition at 1 µM on CDK2/Cyclin A complex was 3.6%; on CDK4/Cyclin D3 complex, 10.3%. Further, the values for the inhibition at 20 µM (in assay [1]; at FL-CHK1) were -14% and 0.7%, respectively.
For `CC(=O)Oc1ccccc1-c1csc(-c2sc(Nc3ccc(C(C)C)cc3)nc2N)n1`, the results for the inhibition at 1 µM on CDK2/Cyclin A complex and on CDK4/Cyclin D3 complex were 6.6% and 44.3%, respectively. For the same compound, the inhibition at 20 µM was 14% in assay [1] and -12.8% at FL-CHK1.
On the same counts, the results for `CC(C)c1ccc(Nc2nc(N)c(-c3nc(-c4c(Cl)cc(C(F)(F)F)cc4Cl)cs3)s2)cc1` are 26%, 86.2%, 31% and 14.8%.
With `CC(C)c1ccc(Nc2nc(N)c(-c3nc(-c4ccc(F)cc4F)cs3)s2)cc1`, the inhibition at 1 µM turned out to be 30.6% at CDK2/Cyclin A complex and 91.5% on CDK4/Cyclin D3 complex. In addition, the inhibition at 20 µM is 46% in assay [1] and 19.7% at FL-CHK1.
On the same counts, the results for `CCN(CC)c1ccc(-c2csc(-c3sc(Nc4ccc(C(C)C)cc4)nc3N)n2)cc1` are 12.2%, 73%, 9% and -5.3%.
On to `CC(C)c1ccc(Nc2nc(N)c(-c3nc(-c4csc5ccccc45)cs3)s2)cc1`, for which the inhibition at 1 µM came to 9.3% on CDK2/Cyclin A complex and 72% on CDK4/Cyclin D3 complex. Besides, the inhibition at 20 µM in assay [1] is 25%; on FL-CHK1, -4.3%.
`CC(C)c1ccc(Nc2nc(N)c(-c3nc(-c4cc(C(=O)C(Cl)(Cl)Cl)n(C)c4)cs3)s2)cc1`: the figures for the inhibition at 1 µM on CDK2/Cyclin A complex and at CDK4/Cyclin D3 complex were 10.1% and 37.8%, respectively. For the same compound, the inhibition at 20 µM was -3% in assay [1] and 0.7% at FL-CHK1.
For the compound `CC(C)c1ccc(Nc2nc(N)c(-c3nc(-c4cc5cc(Cl)ccc5o4)cs3)s2)cc1`, the inhibition at 1 µM worked out at 17% at CDK2/Cyclin A complex and 33.2% on CDK4/Cyclin D3 complex. For the same compound, the inhibition at 20 µM in assay [1] is -11%; on FL-CHK1 it was 3.4%.
On the same counts, the results for `CC(C)c1ccc(Nc2nc(N)c(-c3nc(-c4cccc(Br)c4)cs3)s2)cc1` are 14.6%, 48.1%, 5% and 12%.
